In US10183950B2, “Thienopyrimidine inhibitors of atypical protein kinase C” (Cancer Research Technology Limited, priority 2011, dated 2019) one finds IC50 data, which are given here for 27 compounds.

One test has as its target T1, full-length human PKCι (Homo sapiens, UniProt P41743).
T1 construct: Recombinant, full-length human PKCι expressed in Sf21 insect cells is also commercially available; purchased; host or cells: Sf21 insect cells
T1 sequence (P41743 1-596): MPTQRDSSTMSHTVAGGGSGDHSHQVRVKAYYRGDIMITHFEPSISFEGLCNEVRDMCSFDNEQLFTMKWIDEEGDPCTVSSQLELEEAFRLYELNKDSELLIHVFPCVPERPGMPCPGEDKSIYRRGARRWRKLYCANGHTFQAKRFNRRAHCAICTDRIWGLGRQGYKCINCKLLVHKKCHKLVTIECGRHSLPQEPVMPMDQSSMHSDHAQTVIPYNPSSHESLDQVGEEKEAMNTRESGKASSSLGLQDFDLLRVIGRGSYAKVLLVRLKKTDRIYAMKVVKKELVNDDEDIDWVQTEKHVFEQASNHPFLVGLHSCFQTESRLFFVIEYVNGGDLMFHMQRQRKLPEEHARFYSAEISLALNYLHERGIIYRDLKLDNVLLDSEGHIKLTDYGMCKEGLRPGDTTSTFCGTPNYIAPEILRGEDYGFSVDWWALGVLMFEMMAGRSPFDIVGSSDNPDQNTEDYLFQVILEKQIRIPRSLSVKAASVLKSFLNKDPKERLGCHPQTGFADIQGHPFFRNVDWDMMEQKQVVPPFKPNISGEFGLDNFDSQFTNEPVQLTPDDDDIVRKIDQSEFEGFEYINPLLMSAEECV
The test can be described thus: PKCι IC50 IMAP fluorescence polarisation assay, full-length enzyme. It counts as biochemical. The following applies: full length PKCi at 15 μM ATP; read-out: IC50 in IMAP assay against full length PKCi. The protocol:
Assays are based on the ability of PKCι to phosphorylate a commercially available peptide substrate in vitro. […] Recombinant, full-length human PKCι expressed in Sf21 insect cells is also commercially available. Recombinant, kinase-domain human PKCι is expressed and purified in-house.
The procedure below explains how dose response curves for inhibitors of PKCι are obtained.
Compounds to be tested are dissolved in 100% DMSO. […] 1 μl is plated into 384 well black low-binding flat bottomed assay plates which are used immediately. Dilutions and additions of compound to assay plates are carried out using Matrix WellMate® and Matrix PlateMate® Plus liquid handling systems.
The final concentration of peptide substrate in the assay is 100 nM. […] Relevant controls are included, namely no compound and no enzyme. […] The reaction is allowed to incubate for 60 minutes at room temperature, before the reaction is stopped and developed by the addition of 20 μl IMAP™ development reagent (Molecular Devices). IMAP development reagent consists of 0.25% (v/v) IMAP progressive binding reagent, 17% (v/v) IMAP progressive binding buffer A and 3% (v/v) IMAP progressive binding buffer B. The plates are then incubated for 2 hours at room temperature before being read using an appropriate plate reader, for example a Molecular Devices HT Analyst or a BMG Pherastar.
Turning to `COc1ccc(OC)c(-c2c(C)sc3c(NC[C@@H](N)Cc4ccccc4)nc(-c4ccncc4)nc23)c1` [compound 466, (S)-N*1*-[7-(2,5-Dimethoxy-phenyl)-6-methyl-2-pyridin-4-yl-thieno[3,2-d]pyrimidin-4-yl]-3-phenyl-propane-1,2-diamine], the IC50 is 10000 to 40000 nM.
The same measure, in the same setting: for `N[C@H](CNc1nc(-c2ccncc2)nc2c(-c3cn[nH]n3)csc12)Cc1ccccc1` [compound 547, (S)-3-Phenyl-N*1*-[2-pyridin-4-yl-7-(3H-[1,2,3]triazol-4-yl)-thieno[3,2-d]pyrimidin-4-yl]-propane-1,2-diamine] the value was < 100 nM; for `C#Cc1sc2c(N[C@@H]3CCNC3)nc(-c3ccncc3)nc2c1C` [compound 543, (6-Ethynyl-7-methyl-2-pyridin-4-yl-thieno[3,2-d]pyrimidin-4-yl)-(R)-pyrrolidin-3-yl-amine], 1000 to 10000 nM; for `N[C@H](CNc1nc(-c2ccncc2)nc2c(C#Cc3ccccc3)csc12)Cc1ccccc1` [compound 402, (S)-3-Phenyl-N*1*-(7-phenylethynyl-2-pyridin-4-yl-thieno[3,2-d]pyrimidin-4-yl)-propane-1,2-diamine], 100 to 1000 nM.
The same measure, in the same setting: the value for `c1cc(-c2nc(N[C@@H]3CCNC3)c3sccc3n2)ccn1` [compound 317, (2-Pyridin-4-yl-thieno[3,2-d]pyrimidin-4-yl)-(R)-pyrrolidin-3-yl-amine] was 1000 to 10000 nM; that for `COc1ccc(F)cc1-c1c(C)sc2c(NC[C@@H](N)Cc3ccccc3)nc(-c3ccncc3)nc12` [compound 467, (S)-N*1*-[7-(5-Fluoro-2-methoxy-phenyl)-6-methyl-2-pyridin-4-yl-thieno[3,2-d]pyrimidin-4-yl]-3-phenyl-propane-1,2-diamine] was 10000 to 40000 nM.
Regarding `COc1cccc(Cl)c1-c1c(C)sc2c(NC[C@@H](N)Cc3ccccc3)nc(-c3ccncc3)nc12` [compound 453, (S)-N*1*-[7-(2-Chloro-6-methoxy-phenyl)-6-methyl-2-pyridin-4-yl-thieno[3,2-d]pyrimidin-4-yl]-3-phenyl-propane-1,2-diamine], the IC50 was 10000 to 40000 nM.
Same read-out and setting: the value for `Cc1sc2c(NC[C@@H](N)Cc3ccccc3)nc(-c3ccncc3)nc2c1-c1cc(Cl)ccc1OC(C)C` [compound 460, (S)-N*1*-[7-(5-Chloro-2-isopropoxy-phenyl)-6-methyl-2-pyridin-4-yl-thieno[3,2-d]pyrimidin-4-yl]-3-phenyl-propane-1,2-diamine] was 10000 to 40000 nM; that for `CCNC(=O)c1csc2c(NC[C@@H](N)Cc3ccccc3)nc(-c3ccncc3)nc12` [compound 554, 4-((S)-2-Amino-3-phenyl-propylamino)-2-pyridin-4-yl-thieno[3,2-d]pyrimidine-7-carboxylic acid ethylamide] was 100 to 1000 nM.
On the same count and under the same terms, the value for `CN1CCN(c2ccc(Nc3cc(-c4nc(N[C@@H]5CCNC5)c5sccc5n4)ccn3)nc2)CC1` [compound 603, (2-{2-[5-(4-Methyl-piperazin-1-yl)-pyridin-2-ylamino]-pyridin-4-yl}-thieno[3,2-d]pyrimidin-4-yl)-(R)-pyrrolidin-3-yl-amine] was 100 to 1000 nM.
Take `CC(C)(C)C#Cc1csc2c(NC[C@@H](N)Cc3ccccc3)nc(-c3ccncc3)nc12` [compound 511, (S)-N*1*-[7-(3,3-Dimethyl-but-1-ynyl)-2-pyridin-4-yl-thieno[3,2-d]pyrimidin-4-yl]-3-phenyl-propane-1,2-diamine]: the IC50 was in the range of 1000 to 10000 nM.
For the compound `COc1cccc(OC)c1-c1c(C)sc2c(NC[C@@H](N)Cc3ccccc3)nc(-c3ccncc3)nc12` [compound 454, (S)-N*1*-[7-(2,6-Dimethoxy-phenyl)-6-methyl-2-pyridin-4-yl-thieno[3,2-d]pyrimidin-4-yl]-3-phenyl-propane-1,2-diamine], the IC50 lay in the range of 10000 to 40000 nM.
On the same count and under the same terms, the value for `c1csc(-c2ccc(Nc3cc(-c4nc(N[C@@H]5CCNC5)c5sccc5n4)ccn3)cc2)c1` [compound 616, (R)-Pyrrolidin-3-yl-{2-[2-(4-thiophen-2-yl-phenylamino)-pyridin-4-yl]-thieno[3,2-d]pyrimidin-4-yl}-amine] was 100 to 1000 nM.
Still for that read-out and setting: the value for `NC(CNc1nc(-c2ccncc2F)nc2c(-c3ccco3)csc12)Cc1ccccc1` (stereo in doubt) [compound 432, (R)-N*1*-[2-(3-Fluoro-pyridin-4-yl)-7-furan-2-yl-thieno[3,2-d]pyrimidin-4-yl]-3-phenyl-propane-1,2-diamine] was 100 to 1000 nM; that for `Brc1csc2c(N[C@@H]3CCNC3)nc(-c3ccncc3)nc12` [compound 351, (7-Bromo-2-pyridin-4-yl-thieno[3,2-d]pyrimidin-4-yl)-(R)-pyrrolidin-3-yl-amine] was < 100 nM.
On the same count and under the same terms, for `CC(C)(O)C#Cc1csc2c(N[C@@H]3CCNC3)nc(-c3ccncc3F)nc12` [compound 519, 4-[2-(3-Fluoro-pyridin-4-yl)-4-((R)-pyrrolidin-3-ylamino)-thieno[3,2-d]pyrimidin-7-yl]-2-methyl-but-3-yn-2-ol] the value was 1000 to 10000 nM; for `COc1ccc(C(C)(C)C)cc1-c1c(C)sc2c(NC[C@@H](N)Cc3ccccc3)nc(-c3ccncc3)nc12` [compound 461, (S)-N*1*-[7-(5-tert-Butyl-2-methoxy-phenyl)-6-methyl-2-pyridin-4-yl-thieno[3,2-d]pyrimidin-4-yl]-3-phenyl-propane-1,2-diamine], 10000 to 40000 nM; for `c1ccc(Nc2cc(-c3nc(N[C@@H]4CCNC4)c4sccc4n3)ccn2)cc1` [compound 573, [2-(2-Phenylamino-pyridin-4-yl)-thieno[3,2-d]pyrimidin-4-yl]-(R)-pyrrolidin-3-yl-amine], 1000 to 10000 nM.
Regarding `N[C@H](CNc1nc(-c2ccncc2)nc2c(C#CCO)csc12)Cc1ccccc1` [compound 515, 3-[4-((S)-2-Amino-3-phenyl-propylamino)-2-pyridin-4-yl-thieno[3,2-d]pyrimidin-7-yl]-prop-2-yn-1-ol], the IC50 was < 100 nM.
For the compound `Fc1cnccc1-c1nc(N[C@@H]2CCNC2)c2scc(Br)c2n1` [compound 352, [7-Bromo-2-(3-fluoro-pyridin-4-yl)-thieno[3,2-d]pyrimidin-4-yl]-(R)-pyrrolidin-3-yl-amine], the IC50 is 1000 to 10000 nM.
The same measure, in the same setting: the value for `N[C@H](CNc1nc(-c2ccncc2)nc2c(C#Cc3cc[nH]n3)csc12)Cc1ccccc1` [compound 549, (S)-3-Phenyl-N*1*-[7-(1H-pyrazol-3-ylethynyl)-2-pyridin-4-yl-thieno[3,2-d]pyrimidin-4-yl]-propane-1,2-diamine] was < 100 nM.
With `Cc1[nH]ncc1-c1nc(NC[C@@H](N)Cc2ccccc2)c2sccc2n1` [compound 634, (S)-N*1*-[2-(5-Methyl-1H-pyrazol-4-yl)-thieno[3,2-d]pyrimidin-4-yl]-3-phenyl-propane-1,2-diamine], the IC50 was in the range of 1000 to 10000 nM.

Still in this test, the particulars now being: full length PKCi at 15 μM ATP; read-out: IC50 in IMAP assay against full length PKCi (Activity).
Take `c1cc(-c2nc(O[C@@H]3CCNC3)c3c4c(sc3n2)CCCC4)ccn1` [compound 139, 2-Pyridin-4-yl-4-((R)-pyrrolidin-3-yloxy)-5,6,7,8-tetrahydro-benzo[4,5]thieno[2,3-d]pyrimidine]: the IC50 was 1000 to 10000 nM.
Still for that read-out and setting: for `COc1ccccc1C[C@H](N)CNc1nc(-c2ccncc2)nc2sc3c(c12)CCSC3` [compound 64, (S)-3-(2-Methoxy-phenyl)-N*1*-(2-pyridin-4-yl-5,8-dihydro-6H-thio-pyrano[4′,3′:4,5]thieno[2,3-d]pyrimidin-4-yl)-propane-1,2-diamine] the value was 10000 to 40000 nM.
On to `N[C@H](CNc1nc(-c2ccncc2)nc2sc3c(c12)CCSC3)Cc1ccccc1` [compound 80, (S)-3-Phenyl-N*1*-(2-pyridin-4-yl-5,8-dihydro-6H-thiopyrano[4′,3′:4,5]thieno[2,3-d]pyrimidin-4-yl)-propane-1,2-diamine], for which the IC50 was 100 to 1000 nM.
Turning to `N[C@H](CNc1nc(-c2ccncc2O)nc2sc3c(c12)CCCC3)Cc1ccccc1` [compound 103, 4-[4-((S)-2-Amino-3-phenyl-propylamino)-5,6,7,8-tetrahydro-benzo[4,5]thieno[2,3-d]pyrimidin-2-yl]-pyridin-3-ol], the IC50 lay in the range of 1000 to 10000 nM.
Same read-out and setting: for `Cc1ccc(C[C@H](N)CNc2nc(-c3ccncc3)nc3sc4c(c23)CCCC4)cc1` [compound 46] the value was 1000 to 10000 nM.
